# Assay results taken from US20230183292A1, “IMMUNOMODULATORS” (priority 2020, published 2023).
# Starred links: 1 amine or outer side, 2 acyl side, 3 side chain; linkers in the order of their positions; H or OH if unused. Positions of bridges follow the written chain, without caps; N, C: chain ends. Non-standard residues stand in square brackets, D forms with d. Residues, ends and D or L forms follow the SMILES beside them. Groups on a side chain read outwards from the residue. *: point of attachment. X6 = C[C@H](CCC(=O)O)[C@H]1CC[C@H]2[C@@H]3C(=O)C[C@@H]4CC(NCC[C@H](N[*:1])C(=O)[*:2])CC[C@]4(C)[C@H]3CC(=O)[C@]12C; X3 = C[C@H](CCC(=O)O)[C@H]1CC[C@H]2[C@@H]3C(=O)C[C@@H]4CC(NC[C@H](N[*:1])C(=O)[*:2])CC[C@]4(C)[C@H]3CC(=O)[C@]12C; Cholyl = C[C@H](CCC(=O)*)[C@H]1CC[C@H]2[C@@H]3[C@H](O)C[C@@H]4C[C@H](O)CC[C@]4(C)[C@H]3C[C@H](O)[C@]12C; Dehydrocholoyl = C[C@H](CCC(=O)*)[C@H]1CC[C@H]2[C@@H]3C(=O)C[C@@H]4CC(=O)CC[C@]4(C)[C@H]3CC(=O)[C@]12C; Lithocholoyl = C[C@H](CCC(=O)*)[C@H]1CC[C@H]2[C@@H]3CC[C@@H]4C[C@H](O)CC[C@]4(C)[C@H]3CC[C@]12C; X10 = C[C@H](CCC(=O)*)[C@H]1CC[C@H]2[C@@H]3C(=O)C[C@@H]4C[C@H](O)CC[C@]4(C)[C@H]3CC(=O)[C@]12C; X11 = O=C(Cn1cc(C[C@H](N[*:1])C(=O)[*:2])c2ccccc21)NCCCCCO; X4 = O=C(Cn1cc(C[C@H](N[*:1])C(=O)[*:2])c2ccccc21)OCCOCCO; X34 = CCCCOC(=O)Cn1cc(C[C@H](N[*:1])C(=O)[*:2])c2ccccc21; X7 = NCCCCNC(=O)Cn1cc(C[C@H](N[*:1])C(=O)[*:2])c2ccccc21; Trp(1-CH2COOH) = N[C@@H](Cc1cn(CC(=O)O)c2ccccc12)C(=O)O; Pro(4R-Me) = C[C@H]1CN[C@H](C(=O)O)C1; Hyp = O=C(O)[C@@H]1C[C@@H](O)CN1; NMeNle = CCCC[C@H](NC)C(=O)O; NMeA = CN[C@@H](C)C(=O)O; Dab = NCC[C@H](N)C(=O)O; Dap = NC[C@H](N)C(=O)O
# Target: T1, PD-1/PD-L1 (Homo sapiens, UniProt Q9NZQ7)
# T1 construct: TVMV protease site (C); made in house; host or cells: HEK293T cells
# T1 sequence (Q9NZQ7 18-239): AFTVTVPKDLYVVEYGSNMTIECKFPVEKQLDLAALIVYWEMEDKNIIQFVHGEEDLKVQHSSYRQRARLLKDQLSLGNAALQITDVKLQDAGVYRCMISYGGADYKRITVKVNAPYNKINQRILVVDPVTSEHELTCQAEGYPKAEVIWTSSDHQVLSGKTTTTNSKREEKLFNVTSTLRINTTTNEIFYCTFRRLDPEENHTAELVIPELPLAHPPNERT
# Assay: PD-1/PD-L1 Homogenous Time-Resolved Fluorescence (HTRF) binding assay
# Settings: HTRF IC50, PD-L1-His 10 nM, PD-1-Ig 20 nM
# Method in brief: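 Inhibitors pre-incubated 15 min with PD-L1-His (10 nM final) in dPBS, 0.1% BSA, 0.05% Tween-20, then 15 min with PD-1-Ig (20 nM final). Eu-cryptate anti-Ig (1 nM) and APC anti-His (20 nM) added, 30 min equilibration; HTRF 665/620 nm ratio. Human ECD proteins from HEK293T.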
row,SMILES,IC50
1,CCCC[C@H]1C(=O)N(C)[C@@H](CCCC)C(=O)N[C@@H](CC(C)C)C(=O)N[C@H](C(=O)NCC(N)=O)CSCC(=O)N[C@@H](Cc2ccc(O)cc2)C(=O)N(C)[C@@H](C)C(=O)N[C@@H](CC(N)=O)C(=O)N2CCC[C@H]2CN[C@@H](CNC(=O)CC[C@@H](C)[C@H]2CC[C@H]3[C@@H]4[C@H](O)C[C@@H]5C[C@H](O)CC[C@]5(C)[C@H]4C[C@H](O)[C@]23C)C(=O)N[C@@H](CC(C)C)C(=O)N2C[C@H](O)C[C@H]2C(=O)N[C@@H](Cc2c[nH]c3ccccc23)C(=O)N[C@@H](CCNC(=O)CC[C@@H](C)[C@H]2CC[C@H]3[C@@H]4[C@H](O)C[C@@H]5C[C@H](O)CC[C@]5(C)[C@H]4C[C@H](O)[C@]23C)C(=O)N[C@@H](Cc2cn(CC(=O)Oc3ccccc3)c3ccccc23)C(=O)N1C [Example 2007],720 nM

# Same assay, conditions: PD-L1-His 10 nM, PD-1-Ig 20 nM; read-out: HTRF IC50
row,SMILES,IC50
1,CCCC[C@H]1C(=O)N(C)[C@@H](CCCC)C(=O)N[C@@H](CC(C)C)C(=O)N[C@H](C(=O)NCC(N)=O)CSCC(=O)N[C@@H](Cc2ccc(O)cc2)C(=O)N(C)[C@@H](C)C(=O)N[C@@H](CC(N)=O)C(=O)N2CCC[C@H]2C(=O)N[C@@H](CNC2CC[C@@]3(C)[C@H](CC(=O)[C@@H]4[C@@H]3CC(=O)[C@]3(C)[C@@H]([C@H](C)CCC(=O)O)CC[C@@H]43)C2)C(=O)N[C@@H](CC(C)C)C(=O)N2C[C@H](O)C[C@H]2C(=O)N[C@@H](Cc2c[nH]c3ccccc23)C(=O)N[C@@H](CCNC2CC[C@@]3(C)[C@H](CC(=O)[C@@H]4[C@@H]3CC(=O)[C@]3(C)[C@@H]([C@H](C)CCC(=O)O)CC[C@@H]43)C2)C(=O)N[C@@H](Cc2cn(CC(=O)O)c3ccccc23)C(=O)N1C (stereo partly shown) [Example 3003] ({CH2CO}-Y[NMeA]NP[X3]L[Hyp]W[X6][Trp(1-CH2COOH)][NMeNle][NMeNle]LCG-NH2; thioether N-14),17 nM
2,CCCC[C@H]1C(=O)N(C)[C@@H](CCCC)C(=O)N[C@@H](CC(C)C)C(=O)N[C@H](C(=O)NCC(N)=O)CSCC(=O)N[C@@H](Cc2ccc(O)cc2)C(=O)N(C)[C@@H](C)C(=O)N[C@@H](CC(N)=O)C(=O)N2CCC[C@H]2C(=O)N[C@@H](CNC(=O)CNC(=O)CC[C@@H](C)[C@H]2CC[C@H]3[C@@H]4[C@H](O)C[C@@H]5C[C@H](O)CC[C@]5(C)[C@H]4C[C@H](O)[C@]23C)C(=O)N[C@@H](CC(C)C)C(=O)N2C[C@H](C)C[C@H]2C(=O)N[C@@H](Cc2c[nH]c3ccccc23)C(=O)N[C@@H](CCNC(=O)CNC(=O)CC[C@@H](C)[C@H]2CC[C@H]3[C@@H]4[C@H](O)C[C@@H]5C[C@H](O)CC[C@]5(C)[C@H]4C[C@H](O)[C@]23C)C(=O)N[C@@H](Cc2cn(CC(=O)OCCOCCO)c3ccccc23)C(=O)N1C [Example 2036] ({CH2CO}-Y[NMeA]NP[Dap]([Gly-Cholyl])L[Pro(4R-Me)]W[Dab]([Gly-Cholyl])[X4][NMeNle][NMeNle]LCG-NH2; thioether N-14),1000 nM
3,CCCCOC(=O)Cn1cc(C[C@@H]2NC(=O)[C@H](CCNC(=O)CNC(=O)CC[C@@H](C)[C@H]3CC[C@H]4[C@@H]5[C@H](O)C[C@@H]6C[C@H](O)CC[C@]6(C)[C@H]5C[C@H](O)[C@]34C)NC(=O)[C@H](Cc3c[nH]c4ccccc34)NC(=O)[C@@H]3C[C@@H](C)CN3C(=O)[C@H](CC(C)C)NC(=O)[C@H](CNC(=O)CNC(=O)CC[C@@H](C)[C@H]3CC[C@H]4[C@@H]5[C@H](O)C[C@@H]6C[C@H](O)CC[C@]6(C)[C@H]5C[C@H](O)[C@]34C)NC(=O)[C@@H]3CCCN3C(=O)[C@H](CC(N)=O)NC(=O)[C@H](C)N(C)C(=O)[C@H](Cc3ccc(O)cc3)NC(=O)CSC[C@@H](C(=O)NCC(N)=O)NC(=O)[C@H](CC(C)C)NC(=O)[C@H](CCCC)N(C)C(=O)[C@H](CCCC)N(C)C2=O)c2ccccc21 [Example 2033] ({CH2CO}-Y[NMeA]NP[Dap]([Gly-Cholyl])L[Pro(4R-Me)]W[Dab]([Gly-Cholyl])[X34][NMeNle][NMeNle]LCG-NH2; thioether N-14),4.2 nM
4,CCCC[C@H]1C(=O)N(C)[C@@H](CCCC)C(=O)N[C@@H](CC(C)C)C(=O)N[C@H](C(=O)NCC(N)=O)CSCC(=O)N[C@@H](Cc2ccc(O)cc2)C(=O)N(C)[C@@H](C)C(=O)N[C@@H](CC(N)=O)C(=O)N2CCC[C@H]2C(=O)N[C@@H](CNC(=O)CC[C@@H](C)[C@H]2CC[C@H]3[C@@H]4C(=O)C[C@@H]5C[C@H](O)CC[C@]5(C)[C@H]4CC(=O)[C@]23C)C(=O)N[C@@H](CC(C)C)C(=O)N2C[C@H](O)C[C@H]2C(=O)N[C@@H](Cc2c[nH]c3ccccc23)C(=O)N[C@@H](CCNC(=O)CC[C@@H](C)[C@H]2CC[C@H]3[C@@H]4C(=O)C[C@@H]5C[C@H](O)CC[C@]5(C)[C@H]4CC(=O)[C@]23C)C(=O)N[C@@H](Cc2cn(CC(=O)O)c3ccccc23)C(=O)N1C [Example 1018] ({CH2CO}-Y[NMeA]NP[Dap](X10)L[Hyp]W[Dab](X10)[Trp(1-CH2COOH)][NMeNle][NMeNle]LCG-NH2; thioether N-14),6.2 nM
5,CCCC[C@H]1C(=O)N(C)[C@@H](CCCC)C(=O)N[C@@H](CC(C)C)C(=O)N[C@H](C(=O)NCC(N)=O)CSCC(=O)N[C@@H](Cc2ccc(O)cc2)C(=O)N(C)[C@@H](C)C(=O)N[C@@H](CC(N)=O)C(=O)N2CCC[C@H]2C(=O)N[C@@H](CNC(=O)CC[C@@H](C)[C@H]2CC[C@H]3[C@@H]4C(=O)C[C@@H]5CC(=O)CC[C@]5(C)[C@H]4CC(=O)[C@]23C)C(=O)N[C@@H](CC(C)C)C(=O)N2C[C@H](O)C[C@H]2C(=O)N[C@@H](Cc2c[nH]c3ccccc23)C(=O)N[C@@H](CCNC(=O)CC[C@@H](C)[C@H]2CC[C@H]3[C@@H]4C(=O)C[C@@H]5CC(=O)CC[C@]5(C)[C@H]4CC(=O)[C@]23C)C(=O)N[C@@H](Cc2cn(CC(=O)OCCOCCO)c3ccccc23)C(=O)N1C [Example 2016] ({CH2CO}-Y[NMeA]NP[Dap](Dehydrocholoyl)L[Hyp]W[Dab](Dehydrocholoyl)[X4][NMeNle][NMeNle]LCG-NH2; thioether N-14),15 nM
6,CCCC[C@H]1C(=O)N(C)[C@@H](CCCC)C(=O)N[C@@H](CC(C)C)C(=O)N[C@H](C(=O)NCC(N)=O)CSCC(=O)N[C@@H](Cc2ccc(O)cc2)C(=O)N(C)[C@@H](C)C(=O)N[C@@H](CC(N)=O)C(=O)N2CCC[C@H]2C(=O)N[C@@H](CNC(=O)CNC(=O)CC[C@@H](C)[C@H]2CC[C@H]3[C@@H]4[C@H](O)C[C@@H]5C[C@H](O)CC[C@]5(C)[C@H]4C[C@H](O)[C@]23C)C(=O)N[C@@H](CC(C)C)C(=O)N2C[C@H](C)C[C@H]2C(=O)N[C@@H](Cc2c[nH]c3ccccc23)C(=O)N[C@@H](CCNC(=O)CNC(=O)CC[C@@H](C)[C@H]2CC[C@H]3[C@@H]4[C@H](O)C[C@@H]5C[C@H](O)CC[C@]5(C)[C@H]4C[C@H](O)[C@]23C)C(=O)N[C@@H](Cc2cn(CC(=O)NCCCCCO)c3ccccc23)C(=O)N1C [Example 2029] ({CH2CO}-Y[NMeA]NP[Dap]([Gly-Cholyl])L[Pro(4R-Me)]W[Dab]([Gly-Cholyl])[X11][NMeNle][NMeNle]LCG-NH2; thioether N-14),670 nM
7,CCCC[C@H]1C(=O)N(C)[C@@H](CCCC)C(=O)N[C@@H](CC(C)C)C(=O)N[C@H](C(=O)NCC(N)=O)CSCC(=O)N[C@@H](Cc2ccc(O)cc2)C(=O)N(C)[C@@H](C)C(=O)N[C@@H](CC(N)=O)C(=O)N2CCC[C@H]2C(=O)N[C@@H](CNC(=O)CNC(=O)CC[C@@H](C)[C@H]2CC[C@H]3[C@@H]4[C@H](O)C[C@@H]5C[C@H](O)CC[C@]5(C)[C@H]4C[C@H](O)[C@]23C)C(=O)N[C@@H](CC(C)C)C(=O)N2C[C@H](C)C[C@H]2C(=O)N[C@@H](Cc2c[nH]c3ccccc23)C(=O)N[C@@H](CCNC(=O)CNC(=O)CC[C@@H](C)[C@H]2CC[C@H]3[C@@H]4[C@H](O)C[C@@H]5C[C@H](O)CC[C@]5(C)[C@H]4C[C@H](O)[C@]23C)C(=O)N[C@@H](Cc2cn(CC(=O)NCCCCN)c3ccccc23)C(=O)N1C [Example 2031] ({CH2CO}-Y[NMeA]NP[Dap]([Gly-Cholyl])L[Pro(4R-Me)]W[Dab]([Gly-Cholyl])[X7][NMeNle][NMeNle]LCG-NH2; thioether N-14),490 nM
8,CCCC[C@H]1C(=O)N(C)[C@@H](CCCC)C(=O)N[C@@H](CC(C)C)C(=O)N[C@H](C(=O)NCC(N)=O)CSCC(=O)N[C@@H](Cc2ccc(O)cc2)C(=O)N(C)[C@@H](C)C(=O)N[C@@H](CC(N)=O)C(=O)N2CCC[C@H]2CN[C@@H](CNC(=O)CC[C@@H](C)[C@H]2CC[C@H]3[C@@H]4[C@H](O)C[C@@H]5C[C@H](O)CC[C@]5(C)[C@H]4C[C@H](O)[C@]23C)C(=O)N[C@@H](CC(C)C)C(=O)N2C[C@H](O)C[C@H]2C(=O)N[C@@H](Cc2c[nH]c3ccccc23)C(=O)N[C@@H](CCNC(=O)CC[C@@H](C)[C@H]2CC[C@H]3[C@@H]4[C@H](O)C[C@@H]5C[C@H](O)CC[C@]5(C)[C@H]4C[C@H](O)[C@]23C)C(=O)N[C@@H](Cc2cn(CC(=O)NCC(F)(F)F)c3ccccc23)C(=O)N1C [Example 2010],4700 nM
9,CCCC[C@H]1C(=O)N(C)[C@@H](CCCC)C(=O)N[C@@H](CC(C)C)C(=O)N[C@H](C(=O)NCC(N)=O)CSCC(=O)N[C@@H](Cc2ccc(O)cc2)C(=O)N(C)[C@@H](C)C(=O)N[C@@H](CC(N)=O)C(=O)N2CCC[C@H]2C(=O)N[C@@H](CNC(=O)CC[C@@H](C)[C@H]2CC[C@H]3[C@@H]4CC[C@@H]5C[C@H](O)CC[C@]5(C)[C@H]4CC[C@]23C)C(=O)N[C@@H](CC(C)C)C(=O)N2C[C@H](O)C[C@H]2C(=O)N[C@@H](Cc2c[nH]c3ccccc23)C(=O)N[C@@H](CCN)C(=O)N[C@@H](Cc2cn(CC(=O)O)c3ccccc23)C(=O)N1C [Example 1009] ({CH2CO}-Y[NMeA]NP[Dap](Lithocholoyl)L[Hyp]W[Dab][Trp(1-CH2COOH)][NMeNle][NMeNle]LCG-NH2; thioether N-14),17 nM
